From US20090099160A1, “4-(4-(Imidazol-4-Yl) Pyrimidin-2-Ylamino) Benzamides as CDK Inhibitors” (priority 2004, published 2009)

Experiments:
[1] = High Throughput Blood Level Assay - Rat; assay type: in vivo; conditions: male, Alderley Park (AP), Wistar derived, Alpk..APfSD, plasma, oral cocktail dosing, normalised to a 1 mg/kg dose
Source text: (§1) The level of oral exposure of a compound can be measured by the following assay. This assay gives a semi-quantitative measure of the concentration of the compound achieved in the blood at a number of time points. Data available include Cmax (highest concentration achieved), and the AUC (area under the plasma concentration/time curve) for the compound. This gives a high throughput measure of likelihood of obtaining blood levels for each compound following oral dosing and as the data are normalised for dose, it allows direct comparison of each compound.
A cocktail of 6 compounds is formulated in propylene glycol using a combination of vortex mixing, sonication and high speed shear mixing. This formulation consists of 5 test compounds (1 mg/ml) and a standard (0.5 mg/ml). The resulting formulation is a solution or a stable (≧several hours) suspension.
The formulation is dosed (2 ml/kg) to two male rats (170-250 gm) which have been fasted for ≦16 hours then pre-dosed with water (˜10 ml/kg). The dose for the test compounds is 2 mg/kg and for the standard it is 1 mg/kg. […]
Samples are analysed by LC/MS-MS and the concentration obtained is used to determine the Cmax μg/ml (maximum compound level detected), AUC0-6 hr μg/hr/ml (area under the curve) and tmax hr (time that the maximum compound levels have been measured) for a given compound to give an indication of exposure […]

[2] = High Throughput Blood Level Assay - Mice; assay type: in vivo; conditions: male, Alpk..APfCD-1, plasma, 2 mg/kg; AP mouse, oral cocktail dosing, normalised to 1 mg/kg
Source text: as §1
The above assay may be run using mice in place of rats, but with the following variations.
For a profile in mice 10 male mice are dosed at the same level as to rats but they are not fasted or predosed with water. Furthermore, samples from mice are all terminal, with 2 mice per time point.
The mice used in the above experiment were AP mice. The AP mouse was originally obtained from a commercial breeder Schoefields in 1956. The stock was rederived by fostering onto a CD-1 Charles Rivers (commercial supplier) outbred mouse and has remained a closed colony ever since. The nomenclature for these animals is Alpk..APfCD-1.

CDK2/Cyclin E = biological target: T1, CDK2/Cyclin E (Homo sapiens, UniProt P24941); experiment: CDK2/Cyclin E in vitro kinase assay (Scintillation Proximity Assay, GST-Rb substrate); assay type: biochemical; conditions: read-out: CDK2 inhibitory activity IC50
T1 construct: made in house; host or cells: Sf21 insect cells (baculovirus co-infection, pVL1393); the GST-Rb substrate was made in E. coli BL21 (DE3) pLysS
Protocol: The compounds were tested in an in vitro kinase assay in 96 well format using Scintillation Proximity Assay (SPA—obtained from Amersham) for measuring incorporation of [γ-33-P]-Adenosine Triphosphate into a test substrate (GST-Retinoblastoma protein; GST-Rb). In each well was placed the compound to be tested (diluted in DMSO and water to correct concentrations) and in control wells either roscovitine as an inhibitor control or DMSO as a positive control. […]
The plates were sealed with Topseal-S plate sealers, left for two hours then spun at 2500 rpm, 1124 xg., for 5 minutes. The plates were read on a Topcount for 30 seconds per well. […]
E. coli paste was resuspended in 10 ml/g of NETN buffer (50 mM Tris pH 7.5, 120 mM NaCl, 1 mM EDTA, 0.5% v/v NP-40, 1 mM PMSF, 1 μg/ml leupeptin, 1 ug/ml aprotinin and 1 ug/ml pepstatin) and sonicated for 2×45 seconds per 100 ml homogenate. […] The final product was analysed by Sodium Dodeca Sulfate (SDS) PAGE (Polyacrylamide gel) using 8-16% Tris-Glycine gels (Novex, San Diego, USA).
The open reading frames of CDK2 and Cyclin E were isolated by reverse transcriptase-PCR using HeLa cell and activated T cell mRNA as a template and cloned into the insect expression vector pVL1393 (obtained from Invitrogen 1995 catalogue number: V1392-20). […]

AUC [1] [µM·h] | Cmax [1] [nM] | AUC [2] [µM·h] | Cmax [2] [nM] | IC50 (CDK2/Cyclin E) [nM] | Compound
0.83 | 400 | 1.5 | 680 | – | Cc1ncc(-c2nc(Nc3ccc(C(=O)NC4CC4)c(F)c3)ncc2F)n1C(C)C [Example 25]
– | – | – | – | 3 | CNC(=O)c1ccc(Nc2ncc(F)c(-c3cnc(C)n3C(C)C)n2)cc1C [Example 28]
